Our source for the IC50 values is patent US7511144B2, “Reverse hydroxamic acid derivatives” (Kaken Pharmaceutical Co., Ltd., priority 2001, dated 2009).

Format in all cases: biochemical
One assay addresses T1, Human MMP3 (Homo sapiens, UniProt P08254).
T1 construct: purchased Calbiochem 444217
Put plainly: MMP3 inhibition experiment. Particulars: concentration required for 50% inhibition of enzyme activity; read-out: IC50 value MMP-3. The procedure: (§1) MMP inhibition experiment may be carried out using a fluorescent synthetic substrate according to, for example, the methods of Bickett et al. (D. Mark Bickett et al., Anal. Biochem., 1993, 212, 58-64) and Nagase et al. (H. Nagase et al., J. Biol. Chem., 1994, 269, 20952-20957). The methods of inhibition experiments carried out for various MMPs are described below.
Human MMP3 (Calbiochem #444217) in 90 μL (5 ng) prepared in the assay buffer A was added to 90 μL of 20 μM fluorescent substrate NFF-3(MOCAc-Arg-Pro-Lys-Pro-Val-Glu-Nva-Trp-Arg-Lys(Dnp)-NH2, Peptide Institute, Inc., #3168-v) prepared in the assay buffer B, followed by reaction for 5 hours at 37° C.

A further assay concerns the target T2, Human MMP1 (Homo sapiens, UniProt P03956).
T2 construct: purchased Calbiochem 444208
T2 sequence (P03956 100-469): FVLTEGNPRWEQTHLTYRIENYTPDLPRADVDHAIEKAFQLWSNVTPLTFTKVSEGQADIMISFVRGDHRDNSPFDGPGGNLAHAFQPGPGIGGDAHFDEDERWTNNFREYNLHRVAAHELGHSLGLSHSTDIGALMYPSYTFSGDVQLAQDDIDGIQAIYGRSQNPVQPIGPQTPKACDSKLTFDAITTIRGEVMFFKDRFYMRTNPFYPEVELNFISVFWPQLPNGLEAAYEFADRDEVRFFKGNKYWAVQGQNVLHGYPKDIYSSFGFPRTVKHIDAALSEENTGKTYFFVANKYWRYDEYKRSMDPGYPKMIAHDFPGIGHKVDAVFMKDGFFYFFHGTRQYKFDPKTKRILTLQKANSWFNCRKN
The assay is described as follows: MMP1 inhibition experiment. The settings on record: read-out: IC50 value MMP-1.

For the next assay, the target named is T3, TACE (Homo sapiens, UniProt P78536).
T3 construct: made in house; host or cells: mammalian cells or insect cells
The assay is described as follows: TACE inhibition experiment (in vitro).

The next assay concerns the target T4, Human MMP13 (Homo sapiens, UniProt P45452).
T4 construct: purchased Chemicon CC068
The assay is described as follows: MMP13 inhibition experiment.

For the next assay, the target named is T5, Human MMP17 (Homo sapiens, UniProt Q9ULZ9).
T5 construct: purchased Calbiochem 475940
T5 sequence (Q9ULZ9 126-300 limits assumed): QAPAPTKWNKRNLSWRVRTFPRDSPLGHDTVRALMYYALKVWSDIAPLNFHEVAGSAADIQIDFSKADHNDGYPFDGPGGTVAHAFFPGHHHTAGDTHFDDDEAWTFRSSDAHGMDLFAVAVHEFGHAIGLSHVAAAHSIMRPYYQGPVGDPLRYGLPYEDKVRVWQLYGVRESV
Put plainly: MMP17 inhibition test. The settings on record: concentration required for 50% inhibition of enzyme activity; read-out: IC50 value MMP-17.

The target of the next assay is T6, Human MMP14 (Homo sapiens, UniProt P50281).
T6 construct: purchased Biogenesis or Calbiochem 5980-1461 or 475935
Put plainly: MMP14 inhibition experiment. The settings on record: concentration required for 50% inhibition of enzyme activity; read-out: IC50 value MMP-14. The procedure:
as §1
Human MMP14 (Biogenesis #5980-1461 or Calbiochem #475935) in amount of 90 μL (4 ng) prepared in the assay buffer A was added to 90 μL of 20 μM fluorescent substrate (Dnp-Pro-Cha-Gly-Cys(Me)-His-Ala-Lys(Nma)-NH2) prepared in the assay buffer B, followed by reaction for 5 hours at 37° C.

Another assay concerns the target T7, Human MMP9 (Homo sapiens, UniProt P14780).
T7 construct: purchased Calbiochem 444231
The assay is described as follows: MMP9 inhibition experiment. Particulars: read-out: IC50 value MMP-9.

In the next assay the target is T8, Human MMP2 (Homo sapiens, UniProt P08253).
T8 construct: purchased Calbiochem 444213
T8 sequence (P08253 110-660): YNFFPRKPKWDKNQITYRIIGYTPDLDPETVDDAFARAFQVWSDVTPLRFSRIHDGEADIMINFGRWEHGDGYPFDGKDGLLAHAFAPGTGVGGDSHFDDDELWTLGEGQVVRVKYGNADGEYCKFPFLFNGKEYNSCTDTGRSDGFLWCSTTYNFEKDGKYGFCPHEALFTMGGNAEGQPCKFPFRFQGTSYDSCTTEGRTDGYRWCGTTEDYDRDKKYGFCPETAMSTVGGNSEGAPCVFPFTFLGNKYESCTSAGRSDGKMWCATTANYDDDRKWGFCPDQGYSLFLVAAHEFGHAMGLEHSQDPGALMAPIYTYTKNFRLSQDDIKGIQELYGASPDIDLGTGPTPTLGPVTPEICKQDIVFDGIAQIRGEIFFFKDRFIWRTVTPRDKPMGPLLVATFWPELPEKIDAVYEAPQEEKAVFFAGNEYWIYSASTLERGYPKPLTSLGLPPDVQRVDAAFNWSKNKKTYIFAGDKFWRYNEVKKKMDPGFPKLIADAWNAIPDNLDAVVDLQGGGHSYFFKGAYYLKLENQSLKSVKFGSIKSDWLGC
Put plainly: MMP2 inhibition experiment. The settings on record: concentration required for 50% inhibition of enzyme activity; read-out: IC50 value MMP-2.

[1] abbreviates: concentration required for 50% inhibition of enzyme activity, read-out: IC50 value MMP-13.
Setting [2] is: concentration required for 50% inhibition of enzyme activity.

Like-named read-outs stand apart in the source and are kept apart here.

T3 sequence (P78536 215-824): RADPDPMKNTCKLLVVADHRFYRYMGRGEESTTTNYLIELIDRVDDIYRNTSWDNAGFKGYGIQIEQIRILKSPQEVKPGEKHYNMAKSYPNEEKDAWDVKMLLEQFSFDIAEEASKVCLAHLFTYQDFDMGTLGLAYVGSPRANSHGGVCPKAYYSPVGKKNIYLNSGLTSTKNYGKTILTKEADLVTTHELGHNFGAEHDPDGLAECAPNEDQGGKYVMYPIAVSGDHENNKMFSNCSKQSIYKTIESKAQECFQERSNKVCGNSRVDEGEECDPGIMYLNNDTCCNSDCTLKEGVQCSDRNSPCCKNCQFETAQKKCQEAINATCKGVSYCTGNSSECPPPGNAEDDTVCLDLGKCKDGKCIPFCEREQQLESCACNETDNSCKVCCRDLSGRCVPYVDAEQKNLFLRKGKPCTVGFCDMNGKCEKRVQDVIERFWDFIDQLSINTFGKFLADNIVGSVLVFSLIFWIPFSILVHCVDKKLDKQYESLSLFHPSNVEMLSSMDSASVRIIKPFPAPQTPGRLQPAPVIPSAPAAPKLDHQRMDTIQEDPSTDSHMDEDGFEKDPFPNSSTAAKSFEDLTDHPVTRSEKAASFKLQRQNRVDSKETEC
T1 sequence (P08254 100-272 limits assumed): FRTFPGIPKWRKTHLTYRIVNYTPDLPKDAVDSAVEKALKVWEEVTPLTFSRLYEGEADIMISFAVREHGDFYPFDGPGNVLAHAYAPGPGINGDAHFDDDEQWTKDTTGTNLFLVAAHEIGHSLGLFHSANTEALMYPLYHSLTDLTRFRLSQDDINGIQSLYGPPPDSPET
T7 sequence (P14780 107-707 limits assumed): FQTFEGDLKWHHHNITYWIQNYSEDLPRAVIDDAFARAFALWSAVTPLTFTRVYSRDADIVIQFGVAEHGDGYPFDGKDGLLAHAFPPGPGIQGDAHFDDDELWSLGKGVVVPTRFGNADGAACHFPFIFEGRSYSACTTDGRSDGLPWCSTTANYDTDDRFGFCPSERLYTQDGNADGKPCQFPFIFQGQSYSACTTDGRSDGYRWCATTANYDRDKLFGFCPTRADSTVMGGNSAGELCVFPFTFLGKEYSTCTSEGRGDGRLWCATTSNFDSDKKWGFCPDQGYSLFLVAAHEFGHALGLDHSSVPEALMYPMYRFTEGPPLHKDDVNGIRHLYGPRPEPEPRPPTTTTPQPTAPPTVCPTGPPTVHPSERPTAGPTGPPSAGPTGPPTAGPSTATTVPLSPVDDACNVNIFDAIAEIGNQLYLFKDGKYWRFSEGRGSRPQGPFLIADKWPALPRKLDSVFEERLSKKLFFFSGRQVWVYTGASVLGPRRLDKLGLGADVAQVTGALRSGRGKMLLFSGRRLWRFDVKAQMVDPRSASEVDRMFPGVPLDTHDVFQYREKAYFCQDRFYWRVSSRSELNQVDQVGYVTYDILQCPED
Procedure for Human MMP13: Human MMP13 (Chemicon #CC068) in amount of 90 μL (200 ng) was activated by mixing with 10 μL of 10 mM APMA, followed by reaction for 1 hour at 37° C. This enzyme solution in amount of 0.6 μL was diluted to 90 μL with the assay buffer A, which was added to 90 μL of 20 μM fluorescent substrate (Dnp-Pro-Cha-Gly-Cys(Me)-His-Ala-Lys(Nma)-NH2) prepared in the assay buffer B, followed by reaction for 4 hours at 37° C.
Procedure for Human MMP2: This enzyme solution in amount of 10 μL was diluted to 90 μL with the assay buffer A, which was added to 90 μL of 20 μM fluorescent substrate (MOCAc((7-methoxycoumarin-4-yl)acetyl)-Pro-Leu-Gly-Leu-A2pr(Dnp)-Ala-Arg-NH2, Peptide Institute, Inc., #3163-v) prepared in the assay buffer B, followed by reaction for 5 hours at 37° C.
Procedure for Human MMP9: This enzyme solution in amount of 1 μL was diluted to 90 μL with the assay buffer A, which was added to 90 μL of 20 μM fluorescent substrate (Dnp-Pro-Cha-Gly-Cys(Me)-His-Ala-Lys(Nma)-NH2) prepared in the assay buffer B, followed by reaction for 4 hours at 37° C.

As a reminder, the IC50 is the point on the concentration scale where inhibition reaches its midpoint. Turning to `C=C1CCC(C(CS(=O)(=O)c2ccc(OCc3cc(C)cc(C)c3)cc2)N(O)C=O)CC1` (centres unmarked) [Example I-5, N-[2-{4-(3,5-Dimethylbenzyloxy)benzenesulfonyl}-1-(4-methylenecyclohexyl)ethyl]-N-hydroxyformamide], the IC50 at Human MMP3 worked out at 20 µM; on Human MMP1, 33 µM; against TACE, 0.43 µM; on Human MMP13 (setting [1]), 10 µM; on Human MMP17, 5 µM; on Human MMP14 it was 25 µM. The IC50 on Human MMP9 came out at 22 µM.

As for `C=C1CCC(C(CS(=O)(=O)c2ccc(OCc3cc(C)cc(OC)c3)cc2)N(O)C=O)CC1` (centres unmarked) [Example I-7, N-Hydroxy-N-[2-{4-(3-methoxy-5-methylbenzyloxy)benzenesulfonyl)-1-(4-methylenecyclohexyl)ethyl]formamide], the IC50 amounted to 20 µM on Human MMP3; 43 µM at Human MMP1; 0.2 µM on TACE; 10 µM on Human MMP13 (setting [1]); 6 µM on Human MMP17; 40 µM at Human MMP14. Besides, the IC50 at Human MMP9 is 30 µM.

`COc1cc(C)cc(COc2ccc(S(=O)(=O)CC(C3CCC4(CC3)OCCO4)N(O)C=O)cc2)c1` (centres unmarked) [Example I-8, N-[1-(1,4-Dioxaspiro[4.5]dec-8-yl)-2-{4-(3-methoxy-5-methylbenzyloxy)benzenesulfonyl}ethyl]-N-hydroxyformamide]: the IC50 on Human MMP3 is 2 µM; on Human MMP1, greater than 100 µM; at TACE, 0.08 µM; on Human MMP13 (setting [1]), 2.2 µM; on Human MMP17, 2 µM; on Human MMP14, 40 µM. For the same molecule, on Human MMP9, the IC50 came to 35 µM.

Consider `Cc1cc(COc2ccc(S(=O)(=O)CC(CC3CCC4(CC3)OCCO4)N(O)C=O)cc2)c2ccccc2n1` (centres unmarked) [Example I-10], for which the IC50 came out at 1.2 µM at Human MMP3; 6 µM at Human MMP2; 45 µM at Human MMP1; 0.06 µM against TACE (setting [2]); 5 µM at Human MMP13 (setting [1]); 1.1 µM at Human MMP17. The results for the IC50 on Human MMP14 and at Human MMP9 (setting [2]) were 23 µM and 12 µM, respectively.

Take `Cc1cc(COc2ccc(S(=O)(=O)CC(C3CCC(=O)CC3)N(O)C=O)cc2)c2ccccc2n1` (centres unmarked) [Example I-11, N-Hydroxy-N-{2-[4-(2-methylquinolin-4-ylmethoxy)benzenesulfonyl]-1-(4-oxocyclohexyl)ethyl}formamide]: the IC50 turned out to be 2 µM on Human MMP3; 30 µM at Human MMP2; 45 µM at Human MMP1; 0.02 µM on TACE (setting [2]); 7 µM on Human MMP13 (setting [1]); 0.6 µM at Human MMP17. The IC50 on Human MMP14 turned out to be 35 µM; at Human MMP9 (setting [2]) it was 28 µM.

Turning to `CON=C1CCC(C(CS(=O)(=O)c2ccc(OCc3cc(C)nc4ccccc34)cc2)N(O)C=O)CC1` (centres unmarked) [Example I-12], the IC50 on Human MMP3 amounted to 3 µM; on Human MMP2, 30 µM; at Human MMP1 it was 45 µM; against TACE, 0.07 µM; on Human MMP13 (setting [1]), 10 µM; at Human MMP17, 2 µM. The IC50 at Human MMP14 turned out to be 35 µM; at Human MMP9 it was 28 µM.

In the case of `Cc1cc(COc2ccc(S(=O)(=O)CC(C3CCC(=NOC=O)CC3)N(O)C=O)cc2)c2ccccc2n1` (centres unmarked) [Example I-13], the IC50 was found to be 3 µM on Human MMP3; 40 µM on Human MMP2; 60 µM at Human MMP1; 0.021 µM against TACE; 10 µM on Human MMP13 (setting [1]); 0.7 µM on Human MMP17. In addition, the results for the IC50 on Human MMP14 and at Human MMP9 were 40 µM and 28 µM, respectively.

As for `Cc1cc(COc2ccc(S(=O)(=O)CC(C(F)=C3CCOCC3)N(O)C=O)cc2)c2ccccc2n1` (centres unmarked) [Example I-16], the IC50 at Human MMP3 was 10 µM; at Human MMP2 it was 40 µM; on Human MMP1 it was greater than 100 µM; against TACE it was 0.007 µM; at Human MMP13 (setting [1]), 40 µM; on Human MMP17, 5.5 µM. For the same molecule, the IC50 at Human MMP14 and on Human MMP9 was greater than 100 µM each time.

`Cc1cc(COc2ccc(S(=O)(=O)CC(C(Cl)=C3CCOCC3)N(O)C=O)cc2)c2ccccc2n1` (centres unmarked) [Example I-19]: the IC50 is 20 µM at Human MMP3; greater than 100 µM on Human MMP2; greater than 100 µM on Human MMP1; 0.0063 µM on TACE; 70 µM on Human MMP13 (setting [1]); 7 µM at Human MMP17. The IC50 on Human MMP14 and on Human MMP9 was greater than 100 µM throughout.

In the case of `Cc1cc(COc2ccc(S(=O)(=O)CC(c3ccccc3C)N(O)C=O)cc2)c2ccccc2n1` (centres unmarked) [Example I-23], the IC50 on Human MMP3 stood at 3 µM; at Human MMP2, 30 µM; at Human MMP1, 60 µM; against TACE, 0.005 µM; on Human MMP13 (setting [1]), 15 µM; at Human MMP17, 2.1 µM. For the same molecule, the IC50 turned out to be 33 µM at Human MMP14 and 50 µM on Human MMP9.

As for `Cc1cc(COc2ccc(S(=O)(=O)N3CCSC(C)(C)[C@@H]3C(=O)NO)cc2)cc(C)n1` [compound 1, reference compound], the IC50 at Human MMP3 is 0.08 µM; at Human MMP1 (setting [2]), 20 µM; at TACE (setting [2]) it was 0.01 µM; at Human MMP13 (setting [1]), 0.2 µM; at Human MMP17, 0.02 µM; at Human MMP14, 8 µM. Further, the IC50 at Human MMP9 (setting [2]) was determined as 10 µM.

Turning to `C[C@@H]1O[C@@H](CO)CN(S(=O)(=O)c2ccc(OCc3ccc(F)cc3)cc2)[C@H]1C(=O)NO` [compound 2, reference compound], the IC50 was 0.04 µM on Human MMP3; 3 µM at Human MMP1 (setting [2]); 0.005 µM against TACE (setting [2]); 0.004 µM on Human MMP13 (setting [1]); 0.021 µM on Human MMP17; 0.1 µM on Human MMP14. Moreover, the IC50 on Human MMP9 (setting [2]) was 0.02 µM.

Turning to `CC[C@H](C)[C@H](NC(=O)[C@H](CC(C)C)[C@H](C(C)C)N(O)C=O)C(=O)Nc1ccccn1` [compound 3, (2R,3S)-3-(formylhydroxyamino)-2-(2-methyl-1-propyl)-4-methylpentanoic acid [(1S,2S)-2-methyl-1-(pyridin-2-ylcarbamoyl)-1-butyl]amide, reference compound], the half-inhibitory concentration (IC50) on Human MMP3 was found to be 0.03 µM; on Human MMP1, 0.045 µM; on TACE it was 0.035 µM; on Human MMP13 (IC50 value MMP-13, concentration required for 50% inhibition of enzyme activity), 0.01 µM; on Human MMP17, 0.013 µM; at Human MMP14 it was 0.07 µM. At Human MMP9, the IC50 was determined as 0.03 µM.
